Measurements as given in publication PMC9246766 (Pharmaceutical research, 2022).
Read-outs that look alike come from different tables or passages of the source.

Key:
[1] = target: T1, OCT3 (Homo sapiens, UniProt O75751); test: ASP+ uptake kinetics in HEK-293 cells overexpressing OCT3; assay type: cell-based; conditions: read-out: Km of OCT3-mediated ASP+ uptake; 2 min uptake, 37°C; OCT3-specific uptake (OCT3 minus empty vector)
T1 sequence (O75751 1-556): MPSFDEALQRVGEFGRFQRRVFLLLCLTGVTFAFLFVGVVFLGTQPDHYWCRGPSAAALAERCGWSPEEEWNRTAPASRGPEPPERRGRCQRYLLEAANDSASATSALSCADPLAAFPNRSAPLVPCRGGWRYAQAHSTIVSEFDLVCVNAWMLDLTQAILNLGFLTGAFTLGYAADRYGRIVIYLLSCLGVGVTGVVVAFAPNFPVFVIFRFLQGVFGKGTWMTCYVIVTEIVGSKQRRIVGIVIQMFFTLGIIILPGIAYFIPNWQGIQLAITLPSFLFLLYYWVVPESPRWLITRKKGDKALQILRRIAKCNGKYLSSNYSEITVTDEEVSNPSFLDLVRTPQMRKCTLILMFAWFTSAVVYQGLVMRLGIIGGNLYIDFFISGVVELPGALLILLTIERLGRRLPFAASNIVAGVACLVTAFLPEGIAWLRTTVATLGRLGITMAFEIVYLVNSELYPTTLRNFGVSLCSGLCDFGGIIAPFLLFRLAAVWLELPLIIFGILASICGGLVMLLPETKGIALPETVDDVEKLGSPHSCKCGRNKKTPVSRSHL

[2] = target: T1, OCT3; test: Predicted DDI potential: ratio of plasma CMAX (total or unbound) to predicted OCT3 IC50; conditions: unbound plasma CMAX over predicted OCT3 IC50
[3] = cited from earlier work; for FDA product insert: warnings, precautions and major adverse reactions: cardiovascular / CNS related, ref FDA product insert
[4] = total maximum plasma concentration; ref http://www.micromedexsolutions.com/; cited from earlier work
[5] = target: T1, OCT3; test: High throughput screen: inhibition of OCT3-mediated ASP+ uptake in HEK-293 cells stably expressing OCT3; assay type: cell-based; conditions: for inhibition at 20 µM: HEK293
[6] = target: T1, OCT3; conditions: read-out: Experimental IC50; OCT3 inhibition, literature value; ref 1 (Bourdet et al., 2005); cited from earlier work
[7] = plasma protein binding used for unbound CMAX; source not given; cited from earlier work
[8] = target: T1, OCT3; test: IC50 determination against OCT3-mediated [14C]metformin uptake in HEK-293 cells overexpressing OCT3; assay type: cell-based
[9] = target: T1, OCT3; test: IC50 determination against OCT3-mediated ASP+ uptake in HEK-293 cells overexpressing OCT3; assay type: cell-based

| Km [1] [µM] | Unbound CMAX/IC50 [2] | IC50 [5] [µM] | inhibition at 20 µM [5] [%] | IC50 [8] [µM] | IC50 [9] [µM] | Structure (SMILES) | FDA product insert: warnings, precautions and major adverse reactions [3] | Neurological side effects ([3]; stated in discussion, ref Table SII, 60) | Cmax [4] [µM] | IC50 [6] [µM] | Protein binding [7] [%] | FDA product insert: warnings, precautions and major adverse reactions ([3]; listed as Trazodone) |
| --- | --- | --- | --- | --- | --- | --- | --- | --- | --- | --- | --- | --- |
| 33.3 |  |  |  |  |  | CN(C)c1ccc(/C=C/c2cc[n+](C)cc2)cc1 [ASP^+, 4-Di-1-ASP] |  |  |  |  |  |  |
|  | 28.0 | 9.9 | 66.9 |  |  | NC(N)=Nc1nc(CSCCC(N)=NS(N)(=O)=O)cs1 [famotidine] | Warnings and precautions: Central Nervous System (CNS) Adverse Reactions: Advise elderly patients and those with moderate and severe renal impairment of the risk of CNS adverse reactions, including confusion, delirium, hallucinations, disorientation, agitation, seizures, and lethargy. | neurological side effects | 308 | 6.7 ± 2 | 10 |  |
|  | 0.15 | < 5 | 94.5 | 2.5 | 5.2 | O=c1n(CCCN2CCN(c3cccc(Cl)c3)CC2)nc2ccccn12 [trazodone] | warnings and precautions related to cardiovascular side-effects |  | 7.6 |  | 90 | Warnings and precautions: Cardiac Arrhythmias: Increases the QT interval. Avoid use with drugs that also increase the QT interval and in patients with risk factors for prolonged QT interval. |
